# Reference: patent US11084826B2, “RSV antiviral pyrazolo- and triazolo-pyrimidine compounds” (Janssen Sciences Ireland Unlimited Company, priority 2015, dated 2021)
# Tests used:
# rgRSV224 virus = assay: Antiviral activity: inhibition of rgRSV224 (GFP-expressing RSV) replication in HeLa cells, GFP expression read-out; format: cell-based, respiratory syncytial virus (RSV); conditions: human respiratory syncytial virus, HeLa, read-out: RSV HELA pEC50, rgRSV224 virus (MOI=1) in HeLa cells, GFP read-out (converted)
# How it was run: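 HeLa cells (3,000/well) were infected with GFP-expressing rgRSV224 (MOI=1) in the presence of 9 serial 4-fold compound dilutions (0.05% DMSO) and incubated at 37° C, 5% CO2. After three days, GFP expression was measured by laser microscopy. EC50 is the concentration giving 50% inhibition of GFP expression.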
# [1] = Cytotoxicity in HeLa cells, ATP content measured with the ATPlite kit; format: cell-based; conditions: human, TOX HELA pCC50
Structure (SMILES),EC50 (rgRSV224 virus) [nM],CC50 at 3 days [1] [nM],melting point [°C]
CCc1cc(C(=O)N2CCCCC2C)nc2cc(-c3ccc(NC(=O)C4CC4)cc3)nn12 (stereo not drawn) [Compound E15],832,> 96200,260 to 265
CCc1cc(C(=O)N2CCCCC[C@H]2C)nc2cc(-c3ccc4c(C(=O)O)coc4c3F)nn12 [Compound F40],132,52500,213.87
CCc1cc(C(=O)N2CCc3sccc3[C@H]2C)nc2cc(-c3ccc(-n4cc(C(=O)O)cn4)cc3F)nn12 (racemic) [Compound W40],21.9,36300,168.11
"CC1c2ccsc2CCN1C(=O)c1cc(C2CC2)n2nc(-c3ccc(C4C[C@H]4C(=O)O)cc3F)cc2n1 (single isomer, unassigned) [Compound O20]",8.13,52500,252.97
CCc1cc(C(=O)N2CCCCCC2C)nc2cc(-c3ccc(S(=O)(=O)N(C)C)cc3F)nn12 (stereo not drawn) [Compound P1],2820,> 25100,120
CCc1cc(C(=O)N2CCCCCC2C)nc2cc(-c3ccc4c(c3)CCN4C)nn12 (stereo not drawn) [Compound A10],2090,> 25100,155
CCc1cc(C(=O)N2CCCCC[C@H]2C)nc2cc(-c3ccc(N4CCC(CO)(C(=O)O)C4)cc3F)nn12 (stereo partly drawn) [Compound W18],81.3,> 100000,276.58
CCc1cc(C(=O)N2CCCCCC2C)nc2cc(-c3ccc(NC(=O)NCC4CCCO4)cc3)nn12 (stereo not drawn) [Compound B5],166,> 100000,205
CCc1cc(C(=O)N2CCCCCC2C)nc2cc(-c3ccc(N/C(=N/C#N)NCC4CCCO4)cc3F)nn12 (stereo not drawn) [Compound B16],589,> 25100,160 to 165
CCc1cc(C(=O)N2CCCCCC2C)nc2cc(-c3ccc(C#N)cc3F)nn12 (stereo not drawn) [Compound H5],813,> 25100,95
CNc1cc(C(=O)N2CCCCC[C@H]2C)nc2cc(-c3ccc(/C=C/C(=O)O)cc3F)nn12 [Compound M3],251,> 25100,198 to 200
CCc1cc(C(=O)N2CCCCCC2C)nc2cc(-c3ccc(C(=O)NC4CC4)cc3F)nn12 (stereo not drawn) [Compound L1],129,> 25100,196
CCc1cc(C(=O)N2CCCCCN2C)nc2cc(-c3ccc(-n4cc(C(=O)O)cn4)cc3F)nn12 [Compound W32],219,> 100000,268.79
CCc1cc(C(=O)N2CCc3ccccc3C2C)nc2cc(-c3ccc(C(=O)O)cc3F)nn12 (stereo not drawn) [Compound K1],158,> 25100,165 to 170
CCOC(=O)Nc1ccc(-c2cc3nc(C(=O)N4CCCCCC4C)cc(CC)n3n2)cc1 (stereo not drawn) [Compound C7],1380,> 100000,195 to 200
C[C@@H]1CCCCCN1C(=O)c1cc(C2CC2)n2nc(-c3ccc(N4CC[C@H](C(=O)O)C4)cc3F)cc2n1 [Compound W51],38.9,69200,203.3
CCc1cc(C(=O)N2CCCCCC2C)nc2cc(-c3ccc(NC(=O)Cn4ccnc4)cc3F)nn12 (stereo not drawn) [Compound E3],132,6460,155 to 160
CC1c2ccsc2CCN1C(=O)c1cc(C2(C)CC2)n2nc(-c3ccc(-n4cc(C(=O)O)cn4)cc3F)cc2n1 (racemic) [Compound W39],28.2,55000,265.13
CCc1cc(C(=O)N2CCCCCC2C)nc2cc(-c3ccc(NC(=O)C4CC4)cc3F)nn12 (stereo not drawn) [Compound E11],631,> 25100,145
"CCc1cc(C(=O)N2CCn3cccc3C2C)nc2cc(-c3ccc(/C=C/C(=O)O)cc3F)nn12 (single isomer, unassigned) [Compound M44]",18.2,> 25100,127.94

Structure (SMILES),EC50 (rgRSV224 virus) [nM],CC50 at 3 days [1] [nM],melting point [°C]
CCc1cc(C(=O)N2CCCCCC2C)nc2cc(-c3ccc(N(C)C)cc3F)nn12 (stereo not drawn) [Compound A6],724,57500,84
C[C@@H]1c2ccccc2CCN1C(=O)c1cc(C2CC2)n2nc(-c3ccc(-n4cc(C(=O)O)cn4)cc3F)cc2n1 [Compound W33],16.2,57500,257.75
CCc1cc(C(=O)N2CCCCCCC2C)nc2cc(-c3ccccc3F)nn12 (stereo not drawn) [Compound A18],355,> 100000,125 to 130
CCc1cc(C(=O)N2CCCCCC2C)nc2cc(-c3ccc(-c4ncc(C)cn4)cc3F)nn12 (stereo not drawn) [Compound F17],646,> 25100,140 to 145
CCc1cc(C(=O)N2CCCCC[C@H]2C)nc2cc(-c3ccc(N4CC[C@@](C)(C(=O)O)C4)cc3F)nn12 [Compound W50],44.7,74100,110.2
CCc1cc(C(=O)N2CCCCCC2C)nc2cc(-c3ccc(NC(=O)Nc4cccc(F)c4)cc3)nn12 (stereo not drawn) [Compound B6],741,> 100000,260 to 265
CCc1cc(C(=O)N2CCCCCC2C)nc2cc(-c3ccc(-c4ccn[nH]4)cc3F)nn12 (stereo not drawn) [Compound F5],309,> 25100,75 to 76
CCc1cc(C(=O)N2CCCCCC2C)nc2cc(-c3ccc(NS(C)(=O)=O)cc3F)nn12 (stereo not drawn) [Compound D1],288,51300,135 to 140
CCc1cc(C(=O)N2CCCCCC2C)nc2cc(-c3ccc(-c4nc(C)c(C(=O)O)s4)cc3F)nn12 (stereo not drawn) [Compound F18],200,> 25100,165 to 170
CCc1cc(C(=O)N2CCCCCC2C)nc2cc(-c3ccc4c(c3)CC(=O)N4)nn12 (stereo not drawn) [Compound A8],646,> 25100,230 to 235
CCc1cc(C(=O)N2CCCCCC2C)nc2cc(-c3ccc(S(=O)(=O)NC)cc3F)nn12 (stereo not drawn) [Compound P3],692,> 25100,116
CCc1cc(C(=O)N2CCCCCC2C)nc2cc(-c3csc(NC(=O)C4CC4)n3)nn12 (stereo not drawn) [Compound E30],1820,> 25100,277 to 279
CCc1cc(C(=O)N2CCc3ccccc3[C@H]2C)nc2cc(-c3ccc(N4CC[C@H](C(=O)O)C4)cc3F)nn12 [Compound W28],4.27,51300,218.99
C[C@@H]1c2ccccc2CCN1C(=O)c1cc(C2CC2)n2nc(-c3ccc(N4CC[C@H](C(=O)O)C4)cc3F)cc2n1 [Compound W38],5.75,46800,214
CCc1cc(C(=O)N2CCCCC[C@H]2C)nc2cc(-c3ccc(C(=O)O)cc3F)nn12 [Compound K5],309,> 25100,148
CCc1cc(C(=O)N2CCCCCC2C)nc2cc(-c3ccc(C(N)=O)nc3)nn12 (stereo not drawn) [Compound I28],1780,> 25100,174 to 175
CCc1cc(C(=O)N2CCCCCC2C)nc2cc(-c3ccc4c(c3)ncn4C)nn12 (stereo not drawn) [Compound A14],398,> 25100,115
CC1c2ccsc2CCN1C(=O)c1cc(C2(C)CC2)n2nc(-c3ccc(-c4ccc(C(=O)O)cn4)cc3F)cc2n1 (racemic) [Compound F68],43.7,51300,203.36
CCc1cc(C(=O)N2CCn3cccc3C2C)nc2cc(-c3ccc(/C=C/C(=O)O)cc3F)nn12 (stereo not drawn) [Compound M43],47.9,> 25100,255 to 260
